Target: T1, Androgen Receptor (AR) (Homo sapiens, UniProt P10275)
T1 sequence (P10275 1-920): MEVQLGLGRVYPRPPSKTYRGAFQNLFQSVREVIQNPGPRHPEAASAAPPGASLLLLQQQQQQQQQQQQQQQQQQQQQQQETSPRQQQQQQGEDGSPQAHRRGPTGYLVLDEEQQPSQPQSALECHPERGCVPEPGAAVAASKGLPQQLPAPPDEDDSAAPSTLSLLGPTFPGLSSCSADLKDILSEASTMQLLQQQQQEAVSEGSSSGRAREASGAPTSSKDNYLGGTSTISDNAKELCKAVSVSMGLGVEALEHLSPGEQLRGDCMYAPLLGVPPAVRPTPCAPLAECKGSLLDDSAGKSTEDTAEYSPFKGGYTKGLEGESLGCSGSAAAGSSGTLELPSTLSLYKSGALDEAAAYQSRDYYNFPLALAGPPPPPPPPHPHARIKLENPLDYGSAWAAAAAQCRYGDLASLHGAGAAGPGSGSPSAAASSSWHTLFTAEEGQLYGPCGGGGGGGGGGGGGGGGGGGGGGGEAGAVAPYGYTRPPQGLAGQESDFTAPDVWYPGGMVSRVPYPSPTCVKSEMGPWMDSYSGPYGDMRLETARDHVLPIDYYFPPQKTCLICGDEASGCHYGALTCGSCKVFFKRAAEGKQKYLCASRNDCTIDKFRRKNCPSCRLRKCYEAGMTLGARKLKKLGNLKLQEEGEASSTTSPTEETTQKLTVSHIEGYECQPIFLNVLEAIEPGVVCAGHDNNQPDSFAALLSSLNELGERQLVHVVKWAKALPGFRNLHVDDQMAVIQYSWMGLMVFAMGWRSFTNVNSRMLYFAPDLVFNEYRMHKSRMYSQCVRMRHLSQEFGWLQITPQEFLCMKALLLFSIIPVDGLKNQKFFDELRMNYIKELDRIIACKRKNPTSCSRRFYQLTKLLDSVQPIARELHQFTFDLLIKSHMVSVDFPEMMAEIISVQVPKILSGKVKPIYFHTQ
Test: Measurement of AR protein degradation in VCaP cells by Western blotting
Format: cell-based
Parameters: endogenous in cells; host or cells: VCaP
Conditions: for Dmax at 0.01 µM / Dmax at 0.1 µM / Dmax: VCaP; for Dmax at 0.01 µM / Dmax at 0.1 µM: 20 h, read-out: AR degradation in VCaP cells (%); for Dmax: read-out: AR degradation in VCaP cells Dmax (%); for DC50: read-out: AR degradation in VCaP cells DC50, VCaP cells, 20 hours
Method: The amount of AR protein present in LNCaP or VCaP cells was measured after treating them with the synthesized compound. The amount of AR protein was measured using Western blotting. The protocol for the experiments using LNCaP or VCaP cells was as follows.
[Culture] LNCaP cells were resuspended in RPMI1640 medium + HEPES (Hyclone, SH30255.01), 10% FBS (Hyclone, SV30207.02), and 1% Penicillin-streptomycin (Welgene, LS 202-02). 3 x 10^5 cells/mL were seeded in 12-well plates (1 mL per well) and cultured for 3 days. VCaP cells were resuspended in IMDM MEDIUM (Hyclone, SH30228.01), 20% FBS (Hyclone, SV30207.02), and 1% Penicillin-streptomycin (Welgene, LS 202-02), seeded at 9 x 10^5/mL in 1 mL per 12-well plate, and cultured for 3 days.
[Compound Treatment] 10 µL of 100x stock (e.g., 0.1, 1, 10 µM) compound solution at the final compound treatment concentration (e.g., 0.001, 0.01, 0.1 µM) was added to each well in 1 mL media, and cells were harvested after 20 hours. For DC50 measurement, 100x stock (0.01, 0.1, 1, 10, 100, 1000 µM) compound solutions at the final compound treatment concentration (0.0001, 0.001, 0.01, 0.1, 1, 10 µM) were used.
[Cell lysis] The cell pellet was suspended using 1% SDS lysis buffer (50 mM Tris, 1 mM EDTA, 1% SDS, pH 8.0, 0.5 mM PMSF, 1x Protease/Phosphatase inhibitor Cocktail (Cell Signaling Technology, 5872S)), and sonication (70% AMP, 10 cycles (30 sec ON/59 sec OFF)) was performed. After centrifugation at 4°C and 20,000 g for 20 minutes, the cell lysate was obtained and transferred to a new tube.
[Protein Quantification] A BCA protein assay (SMART™ BCA Protein Assay Kit, iNtRON Biotechnology, 21071) was performed using a 96-well microplate. 5 µL of cell lysate and 5 µL of 1% SDS lysis buffer were added to each well of the 96-well plate, followed by an additional 200 µL of BCA reagent (Reagent A: Reagent B = 50:1). The wells were incubated at 37°C for 30 minutes and cooled to room temperature for 10 minutes. After shaking for 10 seconds, the absorbance was measured at a wavelength of 562 nm. The unknown protein concentration was determined using a BSA standard curve (0, 0.125, 0.25, 0.5, 1, 2 mg/mL). Western blotting samples were prepared by mixing cell lysate, 1% SDS lysis buffer, 4x NuPAGE™ LDS Sample buffer (Invitrogen, NP0008), and 10X NuPAGE™ Sample Reducing Agent (Invitrogen, NP0009) and boiling at 70°C for 10 minutes.
[Electrophoresis] 10 µg of protein sample was loaded into each well of a NuPAGE™ 4 to 12%, Bis-Tris, 1.0 mm Mini Protein Gel, 15-well, 17-well, or 26-well (Invitrogen, NP0323BOX, NP0329BOX, or WG1403BOX) and electrophoresed for 40 minutes using NuPAGE™MES SDS Running Buffer (Invitrogen, NP0002) at 200 V (constant V).
[Transfer] Transfer was performed for 15 or 18 minutes using the electrophoresed gel and the Trans-Blot® Turbo™ Transfer Starter System (Bio-RAD, #17001918, Mini Nitrocellulose) at 1.3 A (constant A) and 25 V (limit V). To confirm protein transfer, 15 mL of Ponceau S solution (Sigma, P7170-1L) was used to stain for 1 minute, and then washed to check the degree of transfer.
[Blocking] The membrane for AR and GAPDH detection was blocked with 5% skim milk/0.2% TBST (Skim milk: BD, 232100/ 20X TBS: Biosesang, TR2008-100-00/ 10% Tween 20 Solution: Bio-RAD, #161-0781) for 45 minutes.
[Antibodies and Detection] Primary AR antibody (Androgen Receptor: CST, 5153S) was mixed with 5% skim milk/0.2% TBST at a ratio of 1:1,000 and reacted at room temperature for 3 hours or at 4°C overnight. Primary GAPDH antibody (CST, 2118S) was mixed with 5% skim milk/0.2% TBST at a ratio of 1:2,000 and reacted at room temperature for 3 hours or at 4°C overnight. Afterwards, TBST (0.2% Tween 20) was used for washing three times every 5 minutes. Secondary antibody to AR antibody, Anti-rabbit IgG, HRP-linked Antibody (CST, 7074S), was mixed with 5% skim milk/0.2% TBST at a ratio of 1:5,000 and reacted at room temperature for 45 minutes. […]

N#Cc1ccc(N2CCC(C(=O)Nc3ccc(OC4CCN(CC5CCN(c6ccc(N[C@H]7CCC(=O)NC7=O)cc6F)CC5)CC4)cn3)CC2)cc1Cl [Example 9, (S)-1-(3-chloro-4-cyanophenyl)-N-(5-((1-((1-(4-((2,6-dioxopiperidin-3-yl)amino)-2-fluorophenyl)piperidin-4-yl)methyl)piperidin-4-yl)oxy)pyridin-2-yl)piperidine-4-carboxamide]
Dmax at 0.01 µM: 94%
Dmax at 0.1 µM: 99%
Dmax: 99%
DC50: 0.1 nM

N#Cc1ccc(N2CCC(C(=O)Nc3ccc(OC4CCN(CC5CCN(c6ccc(NC7CCC(=O)NC7=O)cc6F)CC5)CC4)nn3)CC2)cc1C(F)(F)F (centres unmarked) [Example 7, 1-(4-cyano-3-(trifluoromethyl)phenyl)-N-(6-((1-((1-(4-((2,6-dioxopiperidin-3-yl)amino)-2-fluorophenyl)piperidin-4-yl)methyl)piperidin-4-yl)oxy)pyridazin-3-yl)piperidine-4-carboxamide]
Dmax at 0.01 µM: 94%
Dmax at 0.1 µM: 100%

N#Cc1ccc(N2CCC(C(=O)Nc3ccc(OC4CCN(CC5CCN(c6ccc(N[C@H]7CCC(=O)NC7=O)cc6F)CC5)CC4)cn3)CC2)cc1C(F)(F)F [Example 2, (S)-1-(4-cyano-3-(trifluoromethyl)phenyl)-N-(5-((1-((1-(4-((2,6-dioxopiperidin-3-yl)amino)-2-fluorophenyl)piperidin-4-yl)methyl)piperidin-4-yl)oxy)pyridin-2-yl)piperidine-4-carboxamide]
Dmax at 0.01 µM: 83%
Dmax at 0.1 µM: 99%
Dmax: 99%
DC50: 0.19 nM

N#Cc1ccc(N2CCC(C(=O)Nc3ccc(OC4CCN(CC5CCN(c6ccc(NC7CCC(=O)NC7=O)cc6F)CC5)CC4)nn3)CC2)c(F)c1Cl (centres unmarked) [Example 15, 1-(3-chloro-4-cyano-2-fluorophenyl)-N-(6-((1-((1-(4-((2,6-dioxopiperidin-3-yl)amino)-2-fluorophenyl)piperidin-4-yl)methyl)piperidin-4-yl)oxy)pyridazin-3-yl)piperidine-4-carboxamide]
Dmax at 0.01 µM: 98%
Dmax at 0.1 µM: 100%

N#Cc1ccc(N2CCC(C(=O)Nc3ccc(OC4CCN(CC5CCN(c6ccc(N[C@@H]7CCC(=O)NC7=O)cc6F)CC5)CC4)cn3)CC2)cc1Cl [Example 10, (R)-1-(3-chloro-4-cyanophenyl)-N-(5-((1-((1-(4-((2,6-dioxopiperidin-3-yl)amino)-2-fluorophenyl)piperidin-4-yl)methyl)piperidin-4-yl)oxy)pyridin-2-yl)piperidine-4-carboxamide]
Dmax at 0.01 µM: 85%
Dmax at 0.1 µM: 99%

N#Cc1ccc(N2CCC(C(=O)Nc3ccc(OC4CCN(CC5CCN(c6ccc(NC7CCC(=O)NC7=O)cc6F)CC5)CC4)cn3)CC2)cc1Cl (centres unmarked) [Example 8, 1-(3-chloro-4-cyanophenyl)-N-(5-((1-((1-(4-((2,6-dioxopiperidin-3-yl)amino)-2-fluorophenyl)piperidin-4-yl)methyl)piperidin-4-yl)oxy)pyridin-2-yl)piperidine-4-carboxamide]
Dmax at 0.01 µM: 94%
Dmax at 0.1 µM: 99%

N#Cc1ccc(N2CCC(C(=O)Nc3ccc(OC4CCN(CC5CCN(c6ccc(NC7CCC(=O)NC7=O)cc6F)CC5)CC4)cn3)CC2)cc1C(F)(F)F (centres unmarked) [Example 1, 1-(4-cyano-3-(trifluoromethyl)phenyl)-N-(5-((1-((1-(4-((2,6-dioxopiperidin-3-yl)amino)-2-fluorophenyl)piperidin-4-yl)methyl)piperidin-4-yl)oxy)pyridin-2-yl)piperidine-4-carboxamide]
Dmax at 0.01 µM: 89%
Dmax at 0.1 µM: 99%

N#Cc1ccc(N2CCC(C(=O)Nc3ccc(OC4CCN(CC5CCN(c6ccc(NC7CCC(=O)NC7=O)cc6Cl)CC5)CC4)cn3)CC2)cc1C(F)(F)F (centres unmarked) [Example 17, N-(5-((1-((1-(2-chloro-4-((2,6-dioxopiperidin-3-yl)amino)phenyl)piperidin-4-yl)methyl)piperidin-4-yl)oxy)pyridin-2-yl)-1-(4-cyano-3-(trifluoromethyl)phenyl)piperidine-4-carboxamide]
Dmax at 0.01 µM: 75%
Dmax at 0.1 µM: 97%
